Laboratory results: patent US20230310428A1, “EGFR INHIBITOR AND PREPARATION METHOD AND USE THEREOF” (HONGYUN BIOTECH CO., LTD., priority 2020, published 2023)
Read-outs that look alike come from different tables or passages of the source.

What was measured:
Assay in all cases: Growth inhibitory activity of compounds on BaF3 cell lines stably transfected with kinase (MTS, 48 h)
Type in all cases: cell-based
[1] = target: T1, various mutants of kinase EGFR (BaF3 cell lines stably transfected with kinase) (Homo sapiens, UniProt P00533, C797S/L858R/T790M)
T1 construct: expressed in transfected cells; host or cells: BaF3
Procedure, shortened: (§1)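 BaF3 cells stably transfected with EGFR mutants were exposed for 48 h at 37°C to 8 compound concentrations (top 10 µM, 1/3 dilutions, 0.1% DMSO). Growth was read by MTS at 490 nm after 1-4 h, in duplicate; IC50 was derived from inhibition rates versus DMSO control.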

[2] = target: T2, various mutants of kinase EGFR (BaF3 cell lines stably transfected with kinase) (Homo sapiens, UniProt P00533, T790M/C797S, form not given)
T2 construct: other: BaF3 cells stably transfected with EGFR Δ19Del/T790M/C797S; MTS, 48; other: BaF3 cell line stably transfected with EGFR Δ19Del/T790M/C7
Procedure, shortened: as §1

[3] = target: T3, various mutants of kinase EGFR (BaF3 cell lines stably transfected with kinase) (Homo sapiens, UniProt P00533, L858R)
T3 construct: expressed in transfected cells; host or cells: BaF3
Procedure, shortened: as §1

[4] = target: T4, various mutants of kinase EGFR (BaF3 cell lines stably transfected with kinase) (Homo sapiens, UniProt P00533, L858R/T790M)
T4 construct: expressed in transfected cells; host or cells: BaF3
Procedure, shortened: as §1

[5] = target: T5, various mutants of kinase EGFR (BaF3 cell lines stably transfected with kinase) (Homo sapiens, UniProt P00533)
T5 construct: other: BaF3 cells stably transfected with EGFR Δ19Del; MTS, 48 h; other: BaF3 cell line stably transfected with EGFR Δ19Del
Procedure, shortened: as §1

[6] = target: T6, various mutants of kinase EGFR (BaF3 cell lines stably transfected with kinase) (Homo sapiens, UniProt P00533, T790M, form not given)
T6 construct: other: BaF3 cells stably transfected with EGFR Δ19Del/T790M; MTS, 48 h; other: BaF3 cell line stably transfected with EGFR Δ19Del/T790M; MTS, 48
Procedure, shortened: as §1

[7] = BaF3 cells stably transfected with EGFR L858R/T790M/C797S, read-out: IC50, growth inhibition, L858R/T790M/C797S
[8] = BaF3 cells stably transfected with EGFR Δ19Del/T790M/C797S, read-out: IC50, growth inhibition, Δ19Del/T790M/C797S
[9] = BaF3 cells stably transfected with EGFR L858R, read-out: IC50, growth inhibition, L858R
[10] = BaF3 cells stably transfected with EGFR L858R/T790M, read-out: IC50, growth inhibition, L858R/T790M
[11] = BaF3 cells stably transfected with EGFR Δ19Del, read-out: IC50, growth inhibition, Δ19Del
[12] = BaF3 cells stably transfected with EGFR Δ19Del/T790M, read-out: IC50, growth inhibition, Δ19Del/T790M
[13] = BaF3 cell line stably transfected with EGFR L858R/T790M/C797S, read-out: L858R/T790M/ C797S growth inhibitory activity IC50
[14] = BaF3 cell line stably transfected with EGFR Δ19Del/T790M/C797S, read-out: Δ19Del/T790M/ C797S growth inhibitory activity IC50
[15] = BaF3 cell line stably transfected with EGFR L858R, read-out: L858R growth inhibitory activity IC50
[16] = BaF3 cell line stably transfected with EGFR L858R/T790M, read-out: L858R/ T790M growth inhibitory activity IC50
[17] = BaF3 cell line stably transfected with EGFR Δ19Del, read-out: Δ19Del growth inhibitory activity IC50
[18] = BaF3 cell line stably transfected with EGFR Δ19Del/T790M, read-out: Δ19Del/ T790M growth inhibitory activity IC50

T5 sequence (P00533 with tags, fused parts or gaps DEL746-750): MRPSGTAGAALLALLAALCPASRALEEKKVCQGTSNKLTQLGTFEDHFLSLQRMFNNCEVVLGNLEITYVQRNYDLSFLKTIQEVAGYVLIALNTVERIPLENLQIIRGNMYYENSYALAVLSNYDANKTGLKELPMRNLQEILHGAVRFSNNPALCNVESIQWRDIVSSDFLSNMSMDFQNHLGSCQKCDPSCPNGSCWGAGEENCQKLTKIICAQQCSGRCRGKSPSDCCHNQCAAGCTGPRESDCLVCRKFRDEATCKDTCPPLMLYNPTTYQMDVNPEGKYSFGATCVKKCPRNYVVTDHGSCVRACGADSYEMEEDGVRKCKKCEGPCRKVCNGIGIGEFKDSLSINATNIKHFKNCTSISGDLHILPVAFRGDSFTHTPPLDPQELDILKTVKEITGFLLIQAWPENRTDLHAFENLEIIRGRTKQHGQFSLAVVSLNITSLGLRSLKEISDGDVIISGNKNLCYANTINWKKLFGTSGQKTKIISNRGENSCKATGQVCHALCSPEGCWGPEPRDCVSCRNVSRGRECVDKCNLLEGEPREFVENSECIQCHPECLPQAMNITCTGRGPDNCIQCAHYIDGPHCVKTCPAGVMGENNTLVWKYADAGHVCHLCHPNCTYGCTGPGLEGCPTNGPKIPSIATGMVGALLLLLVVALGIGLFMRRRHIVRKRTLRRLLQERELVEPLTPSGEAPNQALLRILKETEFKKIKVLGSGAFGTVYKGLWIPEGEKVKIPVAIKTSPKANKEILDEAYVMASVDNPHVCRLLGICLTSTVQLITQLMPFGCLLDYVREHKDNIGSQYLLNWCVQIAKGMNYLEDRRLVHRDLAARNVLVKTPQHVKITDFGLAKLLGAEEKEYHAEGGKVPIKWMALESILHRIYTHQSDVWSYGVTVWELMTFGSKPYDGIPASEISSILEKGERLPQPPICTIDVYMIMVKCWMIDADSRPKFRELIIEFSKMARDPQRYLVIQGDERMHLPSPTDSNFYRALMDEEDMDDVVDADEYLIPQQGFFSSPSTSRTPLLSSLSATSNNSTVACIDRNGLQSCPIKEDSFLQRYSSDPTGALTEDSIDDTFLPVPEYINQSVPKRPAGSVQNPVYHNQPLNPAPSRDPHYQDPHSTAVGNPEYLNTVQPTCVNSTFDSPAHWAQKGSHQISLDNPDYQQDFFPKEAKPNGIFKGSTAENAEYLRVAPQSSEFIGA
T1 sequence (P00533 25-1210 T790M/C797S/L858R): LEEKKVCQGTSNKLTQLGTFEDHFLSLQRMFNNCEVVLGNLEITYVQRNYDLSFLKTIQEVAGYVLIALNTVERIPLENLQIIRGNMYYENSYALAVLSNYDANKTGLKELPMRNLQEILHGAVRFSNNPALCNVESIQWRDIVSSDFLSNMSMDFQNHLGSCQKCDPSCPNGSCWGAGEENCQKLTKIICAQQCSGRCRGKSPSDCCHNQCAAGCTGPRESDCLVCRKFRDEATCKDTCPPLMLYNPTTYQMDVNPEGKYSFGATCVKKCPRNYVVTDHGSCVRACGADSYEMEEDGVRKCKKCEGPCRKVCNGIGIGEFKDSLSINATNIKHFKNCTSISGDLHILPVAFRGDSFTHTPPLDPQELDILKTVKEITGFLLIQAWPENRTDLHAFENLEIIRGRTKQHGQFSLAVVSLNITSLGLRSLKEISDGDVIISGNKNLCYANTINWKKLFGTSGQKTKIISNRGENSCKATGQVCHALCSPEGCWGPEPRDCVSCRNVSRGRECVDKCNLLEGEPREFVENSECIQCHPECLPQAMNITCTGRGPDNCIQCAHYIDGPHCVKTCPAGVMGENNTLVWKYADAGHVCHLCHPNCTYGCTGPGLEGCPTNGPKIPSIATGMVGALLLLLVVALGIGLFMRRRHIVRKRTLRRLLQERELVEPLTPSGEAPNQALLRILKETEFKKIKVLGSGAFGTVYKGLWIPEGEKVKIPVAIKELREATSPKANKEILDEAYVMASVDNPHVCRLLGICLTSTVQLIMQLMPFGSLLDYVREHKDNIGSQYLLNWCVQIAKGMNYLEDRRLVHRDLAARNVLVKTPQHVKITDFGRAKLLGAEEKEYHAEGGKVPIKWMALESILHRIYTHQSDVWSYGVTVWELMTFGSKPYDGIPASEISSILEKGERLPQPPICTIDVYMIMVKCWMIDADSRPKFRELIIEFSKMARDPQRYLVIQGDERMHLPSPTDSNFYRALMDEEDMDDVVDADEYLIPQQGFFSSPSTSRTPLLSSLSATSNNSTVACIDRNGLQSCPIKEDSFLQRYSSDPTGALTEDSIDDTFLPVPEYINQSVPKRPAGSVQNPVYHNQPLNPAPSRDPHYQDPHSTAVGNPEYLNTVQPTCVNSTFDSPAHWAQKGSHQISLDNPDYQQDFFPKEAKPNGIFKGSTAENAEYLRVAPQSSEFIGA
T6 sequence (P00533 with tags, fused parts or gaps DEL746-750/T790M, form open): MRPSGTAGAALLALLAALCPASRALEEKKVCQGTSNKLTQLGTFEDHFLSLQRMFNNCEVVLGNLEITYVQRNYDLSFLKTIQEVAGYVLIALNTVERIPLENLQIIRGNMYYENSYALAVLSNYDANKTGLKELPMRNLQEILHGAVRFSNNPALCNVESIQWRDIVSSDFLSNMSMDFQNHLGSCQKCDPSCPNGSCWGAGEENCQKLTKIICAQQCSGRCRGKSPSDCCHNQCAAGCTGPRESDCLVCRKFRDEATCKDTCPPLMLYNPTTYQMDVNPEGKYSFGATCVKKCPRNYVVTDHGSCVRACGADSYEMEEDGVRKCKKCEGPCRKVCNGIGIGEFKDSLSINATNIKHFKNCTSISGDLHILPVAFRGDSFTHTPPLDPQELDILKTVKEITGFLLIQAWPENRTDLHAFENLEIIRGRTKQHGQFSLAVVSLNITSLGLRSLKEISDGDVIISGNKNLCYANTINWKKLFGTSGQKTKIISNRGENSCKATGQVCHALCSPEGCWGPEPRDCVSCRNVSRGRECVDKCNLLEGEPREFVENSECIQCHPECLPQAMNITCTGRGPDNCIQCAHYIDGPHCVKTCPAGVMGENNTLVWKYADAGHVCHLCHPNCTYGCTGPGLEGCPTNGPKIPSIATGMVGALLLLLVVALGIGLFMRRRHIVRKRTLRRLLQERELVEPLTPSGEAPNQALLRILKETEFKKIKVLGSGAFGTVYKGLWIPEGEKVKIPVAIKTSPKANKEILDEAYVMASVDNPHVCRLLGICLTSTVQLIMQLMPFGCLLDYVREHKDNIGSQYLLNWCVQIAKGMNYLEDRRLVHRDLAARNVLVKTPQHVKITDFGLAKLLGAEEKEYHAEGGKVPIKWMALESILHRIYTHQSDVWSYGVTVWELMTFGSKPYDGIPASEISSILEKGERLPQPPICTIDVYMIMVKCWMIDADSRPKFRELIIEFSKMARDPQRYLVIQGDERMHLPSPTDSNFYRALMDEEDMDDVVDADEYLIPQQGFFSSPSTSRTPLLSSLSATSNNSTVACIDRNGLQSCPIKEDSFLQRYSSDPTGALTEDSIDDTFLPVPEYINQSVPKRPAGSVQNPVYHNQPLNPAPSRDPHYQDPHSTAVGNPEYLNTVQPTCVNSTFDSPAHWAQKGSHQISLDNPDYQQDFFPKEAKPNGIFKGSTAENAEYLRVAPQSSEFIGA
T4 sequence (P00533 25-1210 T790M/L858R): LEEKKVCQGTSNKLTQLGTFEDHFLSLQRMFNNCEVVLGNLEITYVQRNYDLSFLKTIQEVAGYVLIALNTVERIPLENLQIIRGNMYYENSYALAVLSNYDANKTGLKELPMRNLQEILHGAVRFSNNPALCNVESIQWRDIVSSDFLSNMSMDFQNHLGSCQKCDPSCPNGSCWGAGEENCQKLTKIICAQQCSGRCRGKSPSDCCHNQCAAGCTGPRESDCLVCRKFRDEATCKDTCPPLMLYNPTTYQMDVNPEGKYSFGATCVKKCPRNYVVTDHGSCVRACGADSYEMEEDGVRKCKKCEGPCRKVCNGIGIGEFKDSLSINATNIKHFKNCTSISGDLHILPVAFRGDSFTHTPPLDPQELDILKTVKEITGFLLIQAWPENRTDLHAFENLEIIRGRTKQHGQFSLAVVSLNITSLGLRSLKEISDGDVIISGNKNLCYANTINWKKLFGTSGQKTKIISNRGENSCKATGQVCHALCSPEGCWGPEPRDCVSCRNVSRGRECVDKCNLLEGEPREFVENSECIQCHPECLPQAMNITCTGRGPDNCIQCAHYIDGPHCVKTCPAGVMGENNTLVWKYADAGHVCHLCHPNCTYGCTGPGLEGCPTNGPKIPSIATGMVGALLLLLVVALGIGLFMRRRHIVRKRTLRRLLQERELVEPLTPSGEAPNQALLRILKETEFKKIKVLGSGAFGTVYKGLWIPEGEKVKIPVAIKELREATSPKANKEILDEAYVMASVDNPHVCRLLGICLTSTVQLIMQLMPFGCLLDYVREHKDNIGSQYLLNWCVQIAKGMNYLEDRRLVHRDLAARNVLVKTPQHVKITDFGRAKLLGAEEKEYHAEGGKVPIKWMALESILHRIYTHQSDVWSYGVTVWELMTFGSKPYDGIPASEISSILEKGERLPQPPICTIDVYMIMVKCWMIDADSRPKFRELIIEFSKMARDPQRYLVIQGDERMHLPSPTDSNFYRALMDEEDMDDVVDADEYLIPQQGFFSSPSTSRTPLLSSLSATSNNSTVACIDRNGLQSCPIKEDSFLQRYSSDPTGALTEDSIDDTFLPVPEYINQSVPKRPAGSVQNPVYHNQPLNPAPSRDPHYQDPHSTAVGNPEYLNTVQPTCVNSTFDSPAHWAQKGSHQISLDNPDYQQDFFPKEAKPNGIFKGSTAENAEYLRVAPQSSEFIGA

Row | Compound | IC50 [1, 7] [µM] | IC50 [2, 8] [µM] | IC50 [3, 9] [µM] | IC50 [4, 10] [µM] | IC50 [5, 11] [µM] | IC50 [6, 12] [µM] | IC50 [1, 13] [µM] | IC50 [2, 14] [µM] | IC50 [3, 15] [µM] | IC50 [4, 16] [µM] | IC50 [5, 17] [µM] | IC50 [6, 18] [µM]
1 | COc1cc(N2CCC(N(C)C)CC2)c(C)cc1Nc1ncc(Cl)c(Nc2ccc3nccnc3c2N(C)S(=O)(=O)C(F)(F)F)n1 [Compound I-265] | 0.05 to 0.5 | 0.05 to 0.5 | 0.5 to 2.5 | 0.5 to 2.5 | 0.5 to 2.5 | 0.5 to 2.5 |  |  |  |  |  | 
2 | CCc1cc(Nc2ncc(Br)c(Nc3ccc4nccnc4c3N(C)S(C)(=O)=O)n2)c(OC)cc1N1CCN(C)CC1 [Compound I-15] | ≤ 0.05 | ≤ 0.05 | ≤ 0.05 | ≤ 0.05 | ≤ 0.05 | ≤ 0.05 |  |  |  |  |  | 
3 | CCc1cnc(Nc2cc(C)c(N3CCC(N4CCN(C)CC4)CC3)cc2OC)nc1Nc1ccc2nccnc2c1N(C)S(C)(=O)=O [Compound I-317] |  |  |  |  |  |  | ≤ 0.05 | ≤ 0.05 | ≤ 0.05 | ≤ 0.05 | ≤ 0.05 | ≤ 0.05
4 | COc1ccc(N2CCC(O)CC2)cc1Nc1ncc(Cl)c(Nc2ccc3nccnc3c2N(C)S(=O)(=O)C(F)(F)F)n1 [Compound I-370] |  |  |  |  |  |  | ≤ 0.05 | ≤ 0.05 | 0.05 to 0.5 | 0.05 to 0.5 | 0.5 to 2.5 | 0.5 to 2.5
5 | COc1cc(N2CCC(N3CCN(C)CC3)CC2)c(Cc2ccccc2)cc1Nc1ncc(F)c(Nc2ccc3nccnc3c2N(C)S(C)(=O)=O)n1 [Compound I-182] | 0.5 to 2.5 | 0.5 to 2.5 | 0.5 to 2.5 | 0.5 to 2.5 | 0.5 to 2.5 | 0.5 to 2.5 |  |  |  |  |  | 
6 | CCc1cc(Nc2ncc(Cl)c(Nc3ccc4nccnc4c3N(C)S(=O)(=O)C(F)(F)F)n2)c(OC)cc1N1CCC(N(C)C)C1 (stereo not drawn) [Compound I-133] | 0.05 to 0.5 | ≤ 0.05 | 0.5 to 2.5 | 0.05 to 0.5 | 0.5 to 2.5 | 0.05 to 0.5 |  |  |  |  |  | 
7 | COc1cc(N2CCC(N3CCN(C)CC3)CC2)c(C)cc1Nc1ncc(Br)c(Nc2ccc3nccnc3c2NS(C)(=O)=O)n1 [Compound I-402] |  |  |  |  |  |  | ≤ 0.05 | ≤ 0.05 | 0.05 to 0.5 | ≤ 0.05 | ≤ 0.05 | ≤ 0.05
8 | CN1CCN(c2ccc(Nc3ncc(Br)c(Nc4ccc5nccnc5c4N(C)S(C)(=O)=O)n3)cc2)CC1 [Compound I-40] | ≤ 0.05 | ≤ 0.05 | ≤ 0.05 | ≤ 0.05 | ≤ 0.05 | ≤ 0.05 |  |  |  |  |  | 
9 | CN(c1c(Nc2nc(NC3CC3)ncc2Br)ccc2nccnc12)S(C)(=O)=O [Compound I-73] | 0.5 to 2.5 | 0.5 to 2.5 | 0.5 to 2.5 | 0.05 to 0.5 | 0.5 to 2.5 | 0.05 to 0.5 |  |  |  |  |  | 
10 | CCc1cc(Nc2ncc(C3CC3)c(Nc3ccc4nccnc4c3N(C)S(C)(=O)=O)n2)c(OC)nc1N1CCC(N2CCN(C)CC2)CC1 [Compound I-270] | ≤ 0.05 | ≤ 0.05 | ≤ 0.05 | 0.05 to 0.5 | 0.05 to 0.5 | 0.05 to 0.5 |  |  |  |  |  | 
11 | COc1cc(N2CCC(N3CCN(C)CC3)CC2)c(C)cc1Nc1ncc(C(F)(F)F)c(Nc2ccc3nccnc3c2N(C)S(C)(=O)=O)n1 [Compound I-34] | ≤ 0.05 | ≤ 0.05 | ≤ 0.05 | ≤ 0.05 | ≤ 0.05 | ≤ 0.05 |  |  |  |  |  | 
12 | CCc1cc(Nc2ncc(Cl)c(Nc3ccc4nccnc4c3N(C3CC3)S(C)(=O)=O)n2)c(OC)cc1N1CCC(N(C)C)C1 (stereo not drawn) [Compound I-163] | ≤ 0.05 | ≤ 0.05 | ≤ 0.05 | ≤ 0.05 | ≤ 0.05 | ≤ 0.05 |  |  |  |  |  | 
